From patent publication US4607047A, “N-(allyl-2-pyrrolidinylmethyl) 2-methoxy-4-amino-5-methylsulfamoyl benzamide anti platelets aggregation agent” (Societe d'Etudes Scientifiques et Industrielles de …, priority 1983, dated 1986)

Experiments:
human platelets [1] = assay: platelet release reaction induced by adrenaline, human platelets; format: cell-based; conditions: human platelets in vitro; witnessed by inhibition of second phase of aggregation
Protocol: (§1) All those results agreeing, the following study was carried on human platelets in vitro, before proceeding to therapeutic applications. It relates to the effects of the compound according to the invention, in regard to aggregation induced by thrombin, collagen, adrenaline, and 5-hydroxytryptamine, and with regard to the release of carbon 14-marked 5-hydroxytryptamine, by thrombin, adrenaline and collagen.

platelets [2] = assay: potentiation (induced by 5-hydroxytryptamine) of platelet aggregation caused by adenosinephosphate; format: cell-based, rabbits; conditions: rabbit platelets
Protocol: (§2) The following pharmacological results illustrate the activity of the compound on platelet aggregation, the potentiation of such aggregation, the uptake of serotonin (the chemical name for which is 5-hydroxytryptamine) by the platelets and the release reaction of such platelets. This study was carried out on rabbits:
It is 63 times less powerful than METHYSERGIDE as a 5-hydroxytryptamine antagonist.

platelets [3] = assay: platelet aggregation caused by adenosine phosphate; format: cell-based; conditions: in vitro, rabbits
Protocol: as §2
An inhibiting effect on the aggregation of platelets, caused by adenosine phosphate is observed.

alpha-2 receptors = molecular target: T1, alpha-2 receptors (Oryctolagus cuniculus, UniProt Q5ZQK3); assay: potentiation (induced by CLONIDINE) of platelet aggregation caused by adenosinephosphate; format: cell-based, rabbits; conditions: rabbit platelets
T1 construct: potentiation (induced by CLONIDINE) of platelet aggregation caused by adenosinephosphate; endogenous in cells; host or cells: rabbit blood platelets
T1 sequence (Q5ZQK3 1-451): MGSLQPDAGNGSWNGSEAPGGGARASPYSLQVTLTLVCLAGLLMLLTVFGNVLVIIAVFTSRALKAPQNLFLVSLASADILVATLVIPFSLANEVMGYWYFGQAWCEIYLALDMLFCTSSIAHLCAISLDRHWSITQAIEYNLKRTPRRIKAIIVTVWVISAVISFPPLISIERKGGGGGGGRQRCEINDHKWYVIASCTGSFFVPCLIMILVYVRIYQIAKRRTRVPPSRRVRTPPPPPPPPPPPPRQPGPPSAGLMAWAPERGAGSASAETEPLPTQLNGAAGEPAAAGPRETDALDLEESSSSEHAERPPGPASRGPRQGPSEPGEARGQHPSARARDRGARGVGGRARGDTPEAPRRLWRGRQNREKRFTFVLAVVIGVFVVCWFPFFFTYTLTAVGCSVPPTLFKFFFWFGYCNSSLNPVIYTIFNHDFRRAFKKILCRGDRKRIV
From the text: (§3) The following pharmacological results illustrate the activity of the compound on platelet aggregation, the potentiation of such aggregation, the uptake of serotonin (the chemical name for which is 5-hydroxytryptamine) by the platelets and the release reaction of such platelets.

[4] = molecular target: T2, alpha-2 receptors (Oryctolagus cuniculus); assay: as above; format: cell-based, rabbits; conditions: rabbit platelets; read-out: IC50, anti-adrenergic effect (potentiation induced by CLONIDINE of platelet aggregation caused by adenosinephosphate)
T2 construct: potentiation (induced by CLONIDINE) of platelet aggregation caused by adenosinephosphate; endogenous in cells; host or cells: rabbit blood platelets
From the text: as §3

human platelets [5] = assay: uptake of carbon 14-marked 5-hydroxytryptamine, human platelets in vitro; format: cell-based
platelets [6] = assay: release of carbon 14-marked 5-hydroxytryptamine induced by collagen; format: cell-based, rabbits; conditions: rabbit platelets
Protocol: as §2
(§4) The compound counteracts the action of collagen on the platelets.
The compound of the invention is 13 times more powerful than aspirin, which is well known for inhibiting the platelet release reaction.

platelets [7] = assay: potentiation (induced by adrenaline) of platelet aggregation caused by adenosinephosphate; format: cell-based, rabbits; conditions: rabbit platelets
Protocol: as §2
It is 20 times less powerful than PHENTOLAMINE as an adrenaline antagonist.

[8] = system: central dopaminergic receptors; assay: action on central dopaminergic receptors; apomorphine climbing and stereotypies; format: in vivo, rodents
From the text: Although under those conditions the pathogenetic role of platelet dysfunction has not been definitively established, various medicaments which are assumed to act by interfering with the platelet function have been widely used. Reference may be made for example to aspirin, dipyridamole and sulphinpyrazone. […] It can be said therefore that the undesirable neurological effects are very limited with that medicament.

platelets [9] = assay: platelet aggregation induced by collagen; format: cell-based, rabbits; conditions: rabbit platelets
Protocol: as §2, §4
a. prolongation of the typical latency phase which precedes aggregation of the platelets induced by collagen,
b. inhibition of the aggregation effect induced by collagen, and […]

platelets [10] = assay: uptake of carbon 14-marked 5-hydroxytryptamine by platelets; format: cell-based; conditions: Oryctolagus cuniculus, Platelet; rabbit platelets
From the text: as §3

human platelets [11] = assay: aggregation induced by adrenaline, human platelets in vitro; format: cell-based
Protocol: as §1

human platelets [12] = assay: aggregation induced by thrombin, human platelets in vitro; format: cell-based; conditions: thrombin 3.3 units/ml PRP
Protocol: as §1

human platelets [13] = assay: release of carbon 14-marked 5-hydroxytryptamine induced by thrombin, human platelets; format: cell-based; conditions: human platelets in vitro
Protocol: as §1

human platelets [14] = assay: aggregation induced by collagen, human platelets in vitro; format: cell-based
Protocol: as §1

human platelets [15] = assay: aggregation induced by 5-hydroxytryptamine, human platelets in vitro; format: cell-based
Protocol: as §1

human platelets [16] = assay: release of marked 5-hydroxytryptamine induced by collagen, human platelets; format: cell-based; conditions: human platelets in vitro
Protocol: as §1

vascular thrombus = assay: in vivo formation of a caused vascular thrombus; conditions: animals
rabbit platelets = assay: release of carbon 14-marked 5-hydroxytryptamine induced by adrenaline; format: cell-based; conditions: Oryctolagus cuniculus, Platelet, read-out: IC50, inhibition of release of carbon 14-marked 5-hydroxytryptamine induced by adrenaline
From the text: as §3

SMILES: C=CCN1CCCC1CNC(=O)c1cc(S(=O)(=O)NC)c(N)cc1OC (stereo not shown) [the compound, N-(1-allyl-2-pyrrolidinylmethyl) 2-methoxy 4-amino 5-methylsulphamoyl benzamide]
- release reaction of the platelets induced by adrenaline (human platelets [1]): inhibits
- IC50 (platelets [2]; Oryctolagus cuniculus, Platelet, read-out: IC50, inhibition of potentiation (induced by 5-hydroxytryptamine) of platelet aggregation caused by adenosinephosphate): 19 µM
- times less powerful than METHYSERGIDE as a 5-hydroxytryptamine antagonist (platelets [2]): 63 times
- platelet aggregation caused by adenosine phosphate (platelets [3]): inhibits
- activity relative to MIANSERINE as an alpha-2 antagonist (alpha-2 receptors): twice as active
- IC50 [4]: 29.5 µM
- uptake of carbon 14-marked 5-hydroxytryptamine by platelets (human platelets [5]): does not influence
- IC50 (platelets [6]; Oryctolagus cuniculus, Platelet, read-out: IC50, inhibition of release of carbon 14-marked 5-hydroxytryptamine induced by collagen): 1.8 µM
- times more powerful than aspirin, platelet release reaction (platelets [6]; collagen-induced release): 13 times
- IC50 (platelets [7]; Oryctolagus cuniculus, Platelet, read-out: IC50, inhibition of potentiation (induced by adrenaline) of platelet aggregation caused by adenosinephosphate): 10 µM
- times less powerful than PHENTOLAMINE as an adrenaline antagonist (platelets [7]): 20 times
- action on the central dopaminergic receptors ([8]; animals): only a very weak action
- doses to counteract apomorphine effects (climbing and stereotypies) ([8]; rodents): high doses are required
- aggregation effect induced by collagen (platelets [9]): inhibition
- latency phase preceding aggregation of platelets induced by collagen (platelets [9]): prolongation
- IC50 (platelets [10]): > 100 µM
- first and second phases of aggregation of platelets induced by adrenaline (human platelets [11]): inhibits both
- primary aggregation of platelets induced by thrombin (human platelets [12]): does not influence
- second phase of aggregation induced by thrombin (human platelets [12]): inhibits
- release of carbon 14-marked 5-hydroxytryptamine induced by thrombin (human platelets [13]): inhibits
- aggregation of platelets induced by collagen (human platelets [14]): inhibits
- aggregation of platelets induced by 5-hydroxytryptamine (human platelets [15]): inhibits
- release of marked 5-hydroxytryptamine induced by collagen (human platelets [16]): inhibits
- conditions of formation of a caused vascular thrombus (anti-aggregating effect) (vascular thrombus): modifies the conditions of formation
- IC50 (rabbit platelets): 100 µM
